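How tested: cells in 96-well plates exposed to compound for 48 hours at five concentrations. GI50 marks 50% less growth. At the TGI there is no net growth.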 Where a SMILES comes first, the peptide text is derived from it. The star is where a group is joined. Palmitoyl = CCCCCCCCCCCCCCCC(=O)*
Key:
Experiment in all cases: NCI-60 cell line screen, 48 h
[1] = system: NCI/ADR-RES ovarian
[2] = system: TK-10 renal
[3] = system: EKVX NSCLC
[4] = system: KM12 colon
[5] = system: SNB-75 CNS
[6] = system: U251 CNS
[7] = system: PC-3 prostate
[8] = system: CAKI-1 renal
[9] = system: NCI-H23 lung
[10] = system: SK-MEL-28 melanoma
[11] = system: A498 renal
[12] = system: MDA-N

Compound	TGI [1]	TGI [2]	TGI [3]	TGI [4]	TGI [5]	TGI [6]	TGI [7]	TGI [8]	TGI [9]	TGI [10]	TGI [11]	GI50 [1]	GI50 [3]	GI50 [4]	GI50 [5]	GI50 [8]	GI50 [9]	GI50 [10]	GI50 [11]	TGI [12]
Cc1ccsc1/C=N/Nc1cnccn1	> 100 µM	> 100 µM	> 100 µM	> 100 µM	> 100 µM	> 100 µM	> 100 µM	> 100 µM	> 100 µM	> 100 µM	> 100 µM	–	–	–	–	–	–	–	–	–
O[C@H]1[C@H](O)[C@@H](O)CN2CC[C@H](O)[C@H]12	> 100 µM	–	> 100 µM	> 100 µM	> 100 µM	> 100 µM	–	> 100 µM	> 100 µM	> 100 µM	> 100 µM	–	–	–	–	–	–	–	–	–
O=C1NC(O)CCN1C1OC(CO)C(O)C1O (centres undefined)	> 250 µM	–	> 250 µM	> 250 µM	> 250 µM	> 169 µM	–	> 250 µM	> 250 µM	> 250 µM	> 250 µM	–	–	–	–	–	–	–	–	–
COc1cc(C2c3cc4c(cc3[C@@H](Nc3ccccc3)C3COC(=O)[C@H]23)OCO4)cc(OC)c1O (some centres undefined)	45.2 µM	–	8.47 µM	4.69 µM	7.97 µM	–	–	1.68 µM	3.01 µM	23.1 µM	1.65 µM	–	–	–	–	–	–	–	–	–
CCOC(=O)CNC(=O)NC12CC3CC(CC(C3)C1)C2	> 550 µM	–	> 347 µM	> 449 µM	408 µM	> 550 µM	–	> 487 µM	> 515 µM	> 539 µM	462 µM	–	–	–	–	–	–	–	–	–
CCOC(=O)/C=C1/C(CCCOCc2ccccc2)C2CCCC23CC2(CCN13)OCCO2 (centres undefined)	–	> 100 µM	> 100 µM	58 µM	9.41 µM	51.4 µM	–	–	43.8 µM	51.3 µM	50.3 µM	–	–	–	–	–	–	–	–	–
CN1Cc2c(nc(-c3ccccc3)c[n+]2[O-])N(C)C1	–	> 100 µM	> 100 µM	> 100 µM	> 100 µM	> 100 µM	–	> 100 µM	> 100 µM	> 100 µM	> 100 µM	–	–	–	–	–	–	–	–	–
CCCCCCCCCCCCCCCC(=O)N1CCCC1C(=O)NCC(=O)NC(Cc1ccccc1)C(=O)N1CCCC1C(=O)NC(CO)C(=O)NC(Cc1ccc(O)cc1)C(=O)NC(CCCCN)C(=O)NC(CC(C)C)C(=O)NC(CCCN=C(N)N)C(=O)N1CCCC1C(=O)NCC(N)=O (centres undefined) (Palmitoyl-PGFPSYKLRPG-NH2; configuration not given here)	39.2 µM	–	44.5 µM	12.7 µM	49.3 µM	–	–	50.6 µM	36.6 µM	50.3 µM	93.2 µM	18.2 µM	15.7 µM	2.28 µM	21.7 µM	20.9 µM	18.7 µM	13.9 µM	32.8 µM	–
c1ccc(C(C(=Nc2ccc(Cc3ccc(N=C(C(c4ccccc4)c4ccccc4)N4CC4)cc3)cc2)N2CC2)c2ccccc2)cc1	24.2 µM	34.5 µM	25.9 µM	24.5 µM	–	30.9 µM	22.6 µM	24.1 µM	30.8 µM	21.4 µM	29.1 µM	–	–	–	–	–	–	–	–	–
Cc1cc(C)nc(NC(=S)Nc2ccc([N+](=O)[O-])cc2)c1	> 100 µM	> 100 µM	> 100 µM	> 100 µM	> 100 µM	> 100 µM	> 100 µM	> 100 µM	> 100 µM	> 100 µM	> 100 µM	–	–	–	–	–	–	–	–	–
Cc1ccnc(NC(=S)Nc2ccc([N+](=O)[O-])cc2)c1	> 100 µM	> 100 µM	> 100 µM	> 100 µM	> 100 µM	> 100 µM	> 100 µM	–	> 100 µM	> 100 µM	–	–	–	–	–	–	–	–	–	–
CC(C(=O)COCc1ccccc1)P1(=O)OC(C)(C)CN1C(C)(C)C (centres undefined)	> 100 µM	> 100 µM	> 100 µM	> 100 µM	> 100 µM	–	–	> 100 µM	> 100 µM	–	> 100 µM	–	–	–	–	–	–	–	–	> 100 µM
O=C(NN1C(=O)CS(=O)(=O)C1c1ccc(C(F)(F)F)cc1)c1ccncc1 (centres undefined)	–	> 100 µM	–	> 100 µM	> 100 µM	> 100 µM	–	> 100 µM	> 100 µM	> 100 µM	> 100 µM	–	–	–	–	–	–	–	–	–
C=C(CN(C)C)C(=O)c1ccc(C(=O)C(=C)CN(C)C)cc1	–	> 100 µM	> 100 µM	> 100 µM	> 100 µM	> 100 µM	–	> 100 µM	> 100 µM	> 100 µM	> 100 µM	–	–	–	–	–	–	–	–	–
C=CC1(C)CC(=O)C2(O)C(C)(O1)C(OC(C)=O)C(O)C1C(C)(C)CCC(O)C12C (centres undefined)	> 130 µM	> 34.6 µM	> 150 µM	> 150 µM	> 150 µM	> 94.6 µM	–	58.8 µM	> 150 µM	> 150 µM	> 150 µM	–	–	2.37 µM	4.13 µM	> 55.2 µM	–	–	–	–
CNc1[nH]c(=S)nc2sc3c(c12)CCCC3	> 75 µM	> 75 µM	> 75 µM	> 75 µM	> 75 µM	> 75 µM	> 75 µM	> 75 µM	> 75 µM	> 75 µM	> 75 µM	–	–	–	–	–	–	–	–	–
